pIC50: −log10 of the molar value. ≈ marks a conversion by molar mass, not a printed value. Peptide text beside a SMILES is read from it. * marks the point of attachment. Cbz = O=C(OCc1ccccc1)*
Assays:
Leishmania major = assay: Antileishmanial activity against Leishmania major promastigotes after 48 hrs by MTT method; format: functional, organism-based
Huh-7 = assay: Cytotoxicity against human HuH7 cells by XTT method; format: functional, cell-based
[1] = Cytotoxicity against african green monkey COS7 cells by XTT method; format: cell-based; conditions: Chlorocebus aethiops, COS-7
Leishmania panamensis = assay: Antileishmanial activity against Leishmania panamensis promastigotes after 48 hrs by MTT method; format: functional, organism-based
Leishmania guyanensis = assay: Antileishmanial activity against Leishmania guyanensis promastigotes after 48 hrs by MTT method; format: functional, organism-based

SMILES | IC50 (Leishmania major) | IC50 (Huh-7) | IC50 [1] | IC50 (Leishmania panamensis) | IC50 (Leishmania guyanensis) | pIC50 (Huh-7) | pIC50 [1]
CC1=CCC[C@@]2(C)CC3=C(C[C@@H]12)C(=O)C=CC3=O [CORDIACHROME A] | 4.1 µg/mL (≈ 16.9 µM) | 61.1 µg/mL | 22.5 µg/mL | – | – | – | –
C=C[C@@]1(C)Cc2c(OC(C)=O)ccc(OC(C)=O)c2C[C@H]1C(=C)C [ACETYLCORDIAQUINOL C] | 1.4 µg/mL (≈ 4.26 µM) | 60.9 µg/mL | 20.1 µg/mL | – | – | – | –
CC1=C2C(=O)c3c(OC(=O)c4ccc(Br)cc4)ccc(OC(=O)c4ccc(Br)cc4)c3CC2(C)CCC1=O (racemic) | 23.5 µg/mL (≈ 36.8 µM) | > 100 µg/mL | > 100 µg/mL | – | – | – | –
C/C(C=O)=C\CC/C(C)=C/Cc1cc(O)ccc1O [ALLIODORIN] | 7 µg/mL (≈ 26.9 µM) | 44.8 µg/mL | 31.9 µg/mL | 1.8 µg/mL (≈ 6.91 µM) | 2 µg/mL (≈ 7.68 µM) | – | –
CC1=C2C(=O)c3c(O)ccc(O)c3CC2(C)CCC1=O (racemic) | 81.4 µg/mL (≈ 299 µM) | 71.8 µg/mL | 51.7 µg/mL | 13 µg/mL (≈ 47.7 µM) | 7 µg/mL (≈ 25.7 µM) | – | –
C/C(C=O)=C\CCC(C)(O)/C=C\c1cc(O)ccc1O (racemic) | > 25 µg/mL | > 100 µg/mL | > 100 µg/mL | – | – | – | –
CC1(O)CCCC2(C)Cc3c(O)ccc(O)c3CC12 (racemic) | 2.7 µg/mL (≈ 10.3 µM) | 41.7 µg/mL | > 100 µg/mL | 1.8 µg/mL (≈ 6.86 µM) | 3 µg/mL (≈ 11.4 µM) | – | –
C[C@@H]1[C@H](O)[C@@H](C)/C=C/C=C/C=C/C=C/C=C/C=C/C=C/[C@H](O[C@@H]2O[C@H](C)[C@@H](O)[C@H](N)[C@@H]2O)C[C@@H]2O[C@](O)(C[C@@H](O)C[C@@H](O)[C@H](O)CC[C@@H](O)C[C@@H](O)CC(=O)O[C@H]1C)C[C@H](O)[C@H]2C(=O)O [AMPHOTERICIN B] | < 0.1 µg/mL | – | – | < 0.1 µg/mL | < 0.1 µg/mL | – | –
CC(=O)Oc1ccc(OC(C)=O)c2c1CC1(C)CCC(=O)C(C)=C1C2=O (racemic) | 80.4 µg/mL (≈ 226 µM) | 65.5 µg/mL | 50.7 µg/mL | – | – | – | –
CC(C)C[C@@H](C=O)NC(=O)[C@H](CC(C)C)NC(=O)[C@H](CC(C)C)NC(=O)OCc1ccccc1 [MG-132] (Cbz-Leu-Leu-Leu-aldehyde) | – | – | – | – | – | > 5.00 | > 5.00
C=C[C@@]1(C)Cc2c(O)ccc(O)c2C[C@H]1C(=C)C | 4.5 µg/mL (≈ 18.4 µM) | – | – | – | – | – | –
C=C[C@@]1(C)CC2=C(C[C@H]1C(=C)C)C(=O)C=CC2=O [Cordiachrome C] | 21.1 µg/mL (≈ 87.1 µM) | – | – | 5.5 µg/mL (≈ 22.7 µM) | 6 µg/mL (≈ 24.8 µM) | – | –
C=C1CCC[C@@]2(C)CC3=C(C[C@@H]12)C(=O)C=CC3=O [CORDIACHROME B] | 2.5 µg/mL (≈ 10.3 µM) | 71.5 µg/mL | 14.6 µg/mL | – | – | – | –
